In brackets after ≈: the same amount, converted by molar mass. Several values for one entry are separate records, joined by “and”; a condition that tells them apart may be missing. Equal entries are not always repeated. Entries after “also recorded” stand apart in the source; their conditions may differ. Structures can show the parent of a compound that is named as a salt. Where two headings read alike, the source gives them in different places.
How the values were obtained:
[1] = system: S. aureus SrtA; conditions: cited from earlier work
[2] = molecular target: T1, Recombinant SrtA from S. aureus ATCC6538p (Staphylococcus aureus, UniProt Q2FV99); test: SrtA inhibition assay (fluorescence-based enzymatic assay, Abz-LPETG-Dnp substrate); assay type: biochemical; conditions: for IC50: SrtA IC50, recombinant SrtA from S. aureus ATCC6538p, mean ± SD (n = 3); for SrtA inhibitory activity in words: similar to that of quercetin
T1 construct: no tag is named in the print; made in house; host or cells: Escherichia coli
T1 sequence (Q2FV99 whole entry): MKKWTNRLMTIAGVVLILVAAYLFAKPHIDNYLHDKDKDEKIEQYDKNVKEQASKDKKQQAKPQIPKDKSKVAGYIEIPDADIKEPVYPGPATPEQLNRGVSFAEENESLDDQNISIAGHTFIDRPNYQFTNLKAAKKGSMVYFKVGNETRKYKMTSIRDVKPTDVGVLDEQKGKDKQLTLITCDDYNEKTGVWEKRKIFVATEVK
Procedure: (§1) The SrtA inhibitory activity of compounds 1–6, along with that of a known SrtA inhibitor, quercetin [24], was evaluated in vitro using a fluorescence-based enzymatic assay. Recombinant SrtA from S. aureus ATCC6538p was expressed in Escherichia coli and was purified using nickel affinity chromatography. The cleavage of a synthetic peptide substrate by the SrtA enzyme emitted fluorescence, which was then measured. Table 1 presents the half maximal inhibitory concentration (IC50) values calculated from SrtA inhibition rates. […] As SrtA inhibitors act as anti-infective agents by disrupting bacterial pathogenesis without affecting microbial viability, minimum inhibitory concentration (MIC) values were examined to determine their effects on bacterial cell growth.
To determine the type of inhibition, kinetic studies were performed with halenaquinol at IC50 or twofold IC50 based on a Lineweaver and Burk plot (Figure 2A). Inhibitor constants were obtained by a Dixon plot (Figure 2B). […] Moreover, the binding of halenaquinol to SrtA was reversible because the enzyme activity was recovered by dialysis, excluding the possible existence of a covalent bond between inhibitor and enzyme.
The recombinant SrtA protein from S. aureus ATCC6538p was prepared using a previously described method. Each reaction comprised a 100 μL mixture containing a reaction buffer (50 mM Tris-HCl pH 7.5, 150 mM NaCl, and 5 mM CaCl2), 250 ng of synthetic fluorescent peptide substrate (Abz-LPETG-Dnp), 20 μg of SrtA, and varying concentrations of test samples. DMSO served as the negative control, while quercetin [24] was employed as the positive control. Test sample was dissolved in DMSO and then diluted with reaction buffer to yield a final DMSO concentration of 1%. The reaction mixture was aliquoted into a 96-well plate. Following the addition of SrtA, fluorescence intensity was determined using a microplate reader at excitation and emission wavelengths of 320 nm and 420 nm, respectively. The plate was then incubated for 1 h at 37 °C, and fluorescence intensity was measured. The effect of the inhibitor on SrtA was calculated as a percentage relative to the DMSO-treated control. The percentage of SrtA inhibition was calculated using the following equation: {1 − (Difference value of the test compound/Difference value of a negative control)} × 100. A 12-point, twofold serial dilution dose–response assay was performed independently in triplicate. The resultant dose–response concentration range was 128 to 0.1 μg/mL of inhibitor. Data were scaled to internal controls, and a four-parameter logistic model (SigmaPlot ver. 10.0) was used to fit the measured data and determine the IC50 values. In order to investigate the inhibition type and inhibition constant (Ki) values of halenaquinol, SrtA enzyme activity was monitored in various concentrations of substrate in the absence and presence of halenaquinol. All reactions were repeated three times and enzyme kinetics were evaluated using Lineweaver–Burk and Dixon plots.

[3] = system: S. aureus ATCC6538p; test: Antibacterial activity (CLSI broth dilution MIC); assay type: cell-based; conditions: Staphylococcus aureus, 12 h
Procedure: as §1
An assessment of the antibacterial properties of the isolated compounds was conducted in accordance with the protocols provided by the Clinical and Laboratory Standard Institute (CLSI). The S. aureus ATCC6538p strain was cultivated overnight at 37 °C in Mueller–Hinton broth (MHB, BD Difco, Sparks, MD, USA). Subsequently, it was harvested using centrifugation, rinsed with sterilized deionized water, and adjusted to the optical density of a 0.5 McFarland standard (625 nm). Test compounds, initially dissolved in DMSO, were further diluted with MHB to achieve a range of 2-fold serial dilutions from 0.25 to 128 μg/mL (maintaining a final DMSO concentration of 1%). In a 96-well plate, 90 μL of the MHB containing the test compound were combined with 10 μL of broth inoculated with the bacterium (final bacterial concentration: 5 × 10^5 cfu/mL). Following a 12 h incubation at 37 °C, the MICs were determined as the lowest concentration at which bacterial growth was inhibited. Ampicillin (Duchefa, Amsterdam, The Netherlands) served as the reference standard.

[4] = system: srtA and spa mRNA expression in S. aureus Newman; test: Semiquantitative reverse transcription PCR of srtA and spa mRNA; assay type: cell-based, Staphylococcus aureus
Text: To ascertain whether halenaquinol inhibits the transcription of srtA or blocks its function at an enzyme level without affecting the expression of the srtA gene, the mRNA expression level of srtA in response to various concentrations and exposure times of halenaquinol was initially explored using semi-quantitative reverse transcription PCR (RT-PCR). Total RNA isolated from S. aureus Newman was transcribed into cDNA, and it was used as a template to amplify the target genes. A time-course analysis assessed the impact of halenaquinol on srtA expression at different intervals from 0 to 60 min. […] Furthermore, the expression level of srtA was analyzed after 40 min of incubation at various concentrations of halenaquinol.
Figure 3 Effect of SrtA inhibitors on srtA and spa mRNA expression. S. aureus Newman cells were incubated in the presence of halenaquinol and quercetin. mRNA expression levels of cells were examined using semiquantitative RT-PCR. (A) The time courses of mRNA expression of gyrB and srtA were monitored. Total RNA was isolated from cells grown in medium containing 0.2% dimethyl sulfoxide (DMSO, negative control), halenaquinol or quercetin (positive control). (B) Cells were grown in medium containing the indicated concentrations of halenaquinol or quercetin. The gyrB gene was used as a loading control.
The S. aureus Newman strain was inoculated into 5 mL of trypticase soy broth (TSB) and incubated overnight at 37 °C with shaking. Cultures were diluted 1:100 into TSB and grown until the OD600 reached approximately 0.3. Cultures (5 mL) were aliquoted, and the test compound was added with less than 0.2% DMSO. The negative control group was treated with DMSO only. Cultures were then incubated at 37 °C with shaking and harvested at specific incubation times. Then, 1 mL of each culture was centrifuged, and the pellet was stored at −80 °C. RNA was isolated using the easy-BLUE total RNA extraction kit (iNtRON Biotechnology, Boston, MA, USA). […]

[5] = system: SpA anchoring on cell wall surface of S. aureus Newman; test: SpA cell wall surface anchoring after trypsin removal, Western blot with anti-SpA antibody; assay type: cell-based, Staphylococcus aureus; conditions: trypsin-treated wild type, 1 h
Procedure: The anchoring of SpA on the cell-wall surface in S. aureus was measured using Western blot analysis with monoclonal anti-SpA antibody (Figure 4). […] Then, trypsin-treated wild-type S. aureus cells were incubated in medium containing an SrtA inhibitor, halenaquinol, over a concentration range of 1-to-4 times the IC50 values.
The effect of the test compound on the in vivo inhibition of S. aureus SrtA was investigated by quantifying the abundance of SpA, catalyzed by the transpeptidation of SrtA on the bacterial surface [26]. […] For this study, S. aureus Newman (wild-type), a human clinical isolate, and its isogenic srtA-deletion mutant (ΔsrtA) were utilized [6, 37]. These strains were inoculated into 5 mL of TSB and incubated for 16 h at 37 °C with shaking. Cultures were then diluted 1:100 into TSB and were grown until the OD600 reached approximately 0.5. Cells from a 10 mL culture were harvested, rinsed with phosphate-buffered saline (PBS, Sigma–Aldrich), suspended in 5 mL of PBS containing 0.2 mg/mL trypsin (Sigma-Aldrich), incubated at 37 °C with shaking for 1 h, and washed with PBS. Subsequently, the cells were incubated in 5 mL of TSB containing 1 mM phenylmethylsulfonyl fluoride (PMSF), with the test compound at 37 °C with shaking for 1 h. Negative control groups were treated with DMSO solvent instead of the test compound. Then, aliquots (1 mL) were removed, and the cells were harvested and stored at −80 °C.
S. aureus cells, prepared as described above, were suspended in 1 mL of ice-cold PBS containing 1 mM PMSF. A 1% (w/v) solution of Sulfo-NHS-SS-Biotin was prepared, and it was added (100 μL) to 1 mL of cells, resulting in a final concentration of 1.5 mM Sulfo-NHS-SS-Biotin. The cells were then incubated with gentle shaking at 80 rpm for 2 h on ice and were collected using centrifugation (4000× g, 5 min, 4 °C). To halt the biotinylation reaction, cells were washed three times with 1 mL of ice-cold PBS containing 500 mM glycine. Next, the cells were suspended in 500 μL of lysis buffer containing 100 μg/mL lysostaphin (Sigma–Aldrich) and 2 mM PMSF. […]

[6] = system: SpA surface display on S. aureus Newman; test: Immunofluorescence microscopy of SpA surface display; assay type: cell-based, Staphylococcus aureus; conditions: 8 × IC50 (111.52 μM)
Procedure: Figure 5 Fluorescence microscopy images of SpA surface display. […] BF identifies the bright-field microscopy view of fluorescence microscopy images. Scale bar, […].
The surface display of SpA was visualized following established procedures. A solution of 0.01% poly-L-lysine (Sigma-Aldrich) was added to each well of an 8-well glass chamber slide (SPL) and incubated at 25 °C for 5 min to coat the slide. After washing each well with distilled water and ensuring complete drying, 1 mL of cells, prepared as described above for the re-expression of the cell surface protein, was suspended in PBS containing 0.05% Tween 80 (PBST) and was thoroughly vortexed. A total of 250 μL of suspension was removed and incubated at 25 °C for 20 min with 250 μL of PBS (2.4% paraformaldehyde, 0.006% glutaraldehyde, and 0.05% Tween 80). The fixed cells were washed twice with PBST, and 150 μL of cells were added to the coated slide and incubated at 25 °C for 5 min. […] After washing seven times, anti-fade fluorescence mounting medium (Abcam, Cambridge, UK) was added. […] Images were captured using AiryScan fluorescence detectors and a transmitted light detector (T-PMT) under 10× scan zoom, bidirectional scan, 4× averaging. All the images were analyzed in ZEN 2.1 software (Carl Zeiss).

[7] = system: S. mutans SrtA; conditions: cited from earlier work

O=C(NCCSSCCNC(=O)/C(Cc1ccc(O)c(Br)c1)=N/O)/C(Cc1ccc(O)c(Br)c1)=N/O [psammaplin A]
IC50 ([1]; S. aureus SrtA): 47.4 µM

C[C@@]12CCCc3coc(c31)C(=O)c1cc3c(O)ccc(OS(=O)(=O)O)c3cc12 [Compound 4, xestoquinol sulfate]
IC50 [2]: > 320 µM
MIC ([3]; ATCC6538P): 320 µM and > 128 µg/mL

O=S(=O)(O)c1ccccc1-c1nn2c(-c3ccncc3)nnc2s1 [compound 6e, 3-(4-pyridinyl)-6-(2-sodiumsulfonatephenyl)[1,2,4]triazolo [3,4-b][1,3,4]thiadiazole]
IC50 ([1]; S. aureus SrtA): 9.3 µM

C[C@]12CCCc3coc(c31)C(=O)c1cc3c(cc12)C(O)CCC3O (stereo partly drawn) [Compound 3, 13,14,15,16-tetrahydroxestoquinol]
IC50 [2]: 51.8 µM
MIC ([3]; ATCC6538P): 395 µM and > 128 µg/mL

CC1(C)S[C@@H]2[C@H](NC(=O)[C@H](N)c3ccccc3)C(=O)N2[C@H]1C(=O)O [Ampicillin, reference compound]
MIC ([3]; ATCC6538P): 0.4 µM and 0.1 µg/mL

COc1ccc(/C(C#N)=C/c2cc(OC)ccc2OC)cc1 [(Z)-3-(2,5-dimethoxyphenyl)-2-(4-methoxyphenyl) acrylonitrile]
IC50 ([1]; SrtA inhibition): 9.2 µM
manner of binding the enzyme [1]: reversible
type of inhibition [1]: competitive inhibitor

C[C@@]12CCC(=O)c3coc(c31)C(=O)c1cc3c(O)ccc(OS(=O)(=O)O)c3cc12 [Compound 1, halenaquinol sulfate]
IC50 [2]: 103 µM
SrtA inhibitory activity in words [2]: moderate inhibitory activities
MIC ([3]; ATCC6538P): 309 µM and > 128 µg/mL

O=c1c(O)c(-c2ccc(O)c(O)c2)oc2cc(O)cc(O)c12 [Quercetin, quercetin, reference compound]
IC50 [2]: 158 µM
MIC ([3]; S. aureus ATCC6538p growth, 37 °C, read-out: MIC): > 424 µM and > 128 µg/mL

O=C(c1nc(-c2c[nH]c3cc(Br)ccc23)c[nH]1)c1c[nH]c2cc(O)ccc12 [bromotopsentin]
IC50 ([1]; S. aureus SrtA): 39.6 µM

C[C@@]12CCC(=O)c3coc(c31)C(=O)c1cc3c(O)ccc(O)c3cc12 [Compound 2, halenaquinol]
Ki [2]: 9.55 µM
type of inhibition ([2]; Lineweaver-Burk plot at IC50 or twofold IC50): mixed inhibitor
IC50 [2]: 13.9 µM
reversibility of binding to SrtA ([2]; enzyme activity recovered by dialysis): reversible
SrtA inhibitory potency relative to halenaquinol sulfate ([2]; ratio of IC50 values): approximately 9.2 times
MIC ([3]; ATCC6538P): 383 µM and > 128 µg/mL
inhibition of the transcription of srtA and spA ([4]; S. aureus Newman, semi-quantitative RT-PCR): does not inhibit
PCR band intensity representing mRNA expression of srtA and spa ([4]; after 40 min of incubation, increasing concentrations): slightly increased
PCR band intensity representing srtA mRNA expression ([4]; time course 0 to 60 min, gyrB consistent): increased over time
anchoring of SpA on cell wall surface ([5]; 1 × IC50 (13.94 μM)): no significant difference from the wild type
reduction of SpA anchoring ([5]; 2 × IC50 (27.88 μM)): approximately 53%
reduction of SpA anchoring ([5]; 4 × IC50 (55.76 μM)): ~85%
SpA surface display / inhibition of SpA anchoring [6]: comparable to those for an srtA-deletion mutant; also recorded: significantly reduced

COc1cc2ccnc3c2c(c1O)N(C)C=C3 [isoaaptamine]
IC50 ([1]; S. aureus SrtA): 16.2 µM

C[C@]12CCCc3coc(c31)C(=O)c1cc3c(cc12)C(=O)C=C(NCCS(=O)(=O)O)C3=O [Compound 5, secoadociaquinone B]
IC50 [2]: 131 µM
SrtA inhibitory activity in words [2]: moderate inhibitory activities
MIC ([3]; ATCC6538P): 290 µM and > 128 µg/mL

C[C@H]1OC(=O)c2cc3c(cc21)[C@@]1(C)CC[C@@H](O)c2coc(c21)C3=O [Compound 6, xestolactone A]
IC50 [2]: 47.5 µM
MIC ([3]; ATCC6538P): 395 µM and > 128 µg/mL

O=c1c(O)c(-c2cc(O)c(O)c(O)c2)oc2cc(O)cc(O)c12 [myricetin]
IC50 [7]: 15.48 µg/mL (≈ 48.6 µM)

Source: publication PMC11204543, “Halenaquinol Blocks Staphylococcal Protein A Anchoring on Cell Wall Surface by Inhibiting Sortase A in Staphylococcus aureus” (Marine Drugs, 2024)
